Data on 20 molecules can be found in patent US20260297080A1, “BICYCLIC COMPOUNDS AS CDK INHIBITORS” (BeOne Medicines I GmbH, priority 2022, published 2026).

Bounds are passed on as bounds.

Experiment [1] concerns the target T1, CDK2/Cyclin E1 (Homo sapiens, UniProt P24941). Description: CDK2/Cyclin E1 Biochemical Assay (TR-FRET), 1 mM ATP. Conditions: 0.15 μM Rb (Ser780)-biotin substrate, pH7.0, 60 min preincubation, 90 min reaction, room temperature. The method, then:
(§1) CDK2/Cyclin E1 and CDK1/Cyclin B1 Biochemical Assays
(§2) Compounds disclosed herein were tested for inhibition of CDK2/Cyclin E1 or CDK1/Cyclin B1 kinase in an assay based on the time-resolved fluorescence-resonance energy transfer (TR-FRET) methodology. The assay was carried out in 384-well low volume black plates in a reaction mixture containing CDK2/Cyclin E1 or CDK1/Cyclin B1, 1 mM ATP for CDK2/Cyclin E1 and CDK1/Cyclin B1, 0.15 μM Rb (Ser780)-biotin substrate and 0-10 μM compound in buffer containing 50 mM HEPES pH7.0, 0.02% NaN3, 0.01% BSA, 0.1 mM Orthovanadate, 50 mM MgCl2, 1 mM DTT and 0.005% Tween-20. The kinase was incubated with compound for 60 minutes at room temperature and the reaction was initiated by the addition of ATP and Rb (Ser780)-biotin substrate. After reaction at room temperature for 90 minutes, an equal volume of stop/detection solution was added according to the manufacture's instruction (Cisbio Bioassays). The stop/detection solution contained Streptavidin-XL665 and Anti-pRb (Ser780) mAb-Eu Cryptate in Detection buffer (Cisbio Bioassays). Plates were incubated at room temperature for 60 minutes, and the TR-FRET signals (ex337 nm, em665 nm/620 nm) were recorded on a PHERAstar FSX plate reader (BMG Labtech). The inhibition percentage of CDK2/Cyclin E1 or CDK1/Cyclin B1 kinase activity in presence of increasing concentrations of compounds was calculated based on the ratio of fluorescence at 665 nm to that at 620 nm. The IC50 for each compound was derived from fitting the data to the four-parameter logistic equation by Dotmatics.
(TR-FRET usually uses a lanthanide donor and a delayed reading to cut background.)

Experiment [2] deals with T2, CDK1/Cyclin B1 (Homo sapiens, UniProt P06493). Description: CDK1/Cyclin B1 Biochemical Assay (TR-FRET), 1 mM ATP. Conditions: 0.15 μM Rb (Ser780)-biotin substrate, pH7.0, 60 min preincubation, 90 min reaction, room temperature. Here is the method: as §1, §2
T2 sequence (P06493 whole entry): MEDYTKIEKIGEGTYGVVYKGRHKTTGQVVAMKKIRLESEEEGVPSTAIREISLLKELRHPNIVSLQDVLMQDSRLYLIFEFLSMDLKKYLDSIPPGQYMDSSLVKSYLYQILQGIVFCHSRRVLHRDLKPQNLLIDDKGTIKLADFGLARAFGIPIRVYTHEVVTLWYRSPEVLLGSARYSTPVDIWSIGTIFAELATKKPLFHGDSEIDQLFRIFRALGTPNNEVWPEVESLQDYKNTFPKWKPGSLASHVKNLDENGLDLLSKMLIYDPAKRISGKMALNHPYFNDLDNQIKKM
T2 sequence (P14635 whole entry partner): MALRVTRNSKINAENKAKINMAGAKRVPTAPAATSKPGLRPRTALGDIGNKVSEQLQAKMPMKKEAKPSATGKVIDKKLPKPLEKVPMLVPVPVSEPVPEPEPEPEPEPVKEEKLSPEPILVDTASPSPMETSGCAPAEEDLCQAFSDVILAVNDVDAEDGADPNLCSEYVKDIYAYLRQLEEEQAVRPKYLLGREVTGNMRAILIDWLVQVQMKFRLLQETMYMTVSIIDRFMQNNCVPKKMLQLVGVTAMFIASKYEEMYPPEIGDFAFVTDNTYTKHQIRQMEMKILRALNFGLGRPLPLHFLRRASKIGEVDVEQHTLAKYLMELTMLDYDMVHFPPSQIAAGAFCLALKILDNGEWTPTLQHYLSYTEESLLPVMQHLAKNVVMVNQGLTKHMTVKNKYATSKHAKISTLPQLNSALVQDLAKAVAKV
Experiment [3] concerns the target T2, CDK1/Cyclin B1. Put plainly: CDK1/Cyclin B1 Biochemical Assay (TR-FRET), 0.015 mM ATP. Conditions: 0.15 μM Rb (Ser780)-biotin substrate, pH7.0, 60 min preincubation, 120 min reaction, room temperature. An outline of the steps:
(§3)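 Kinase preincubated with compound (0–10 μM) 60 min at room temperature, then reaction started with ATP and 0.15 μM Rb (Ser780)-biotin peptide and run 120 min in HEPES pH 7.0 buffer with 50 mM MgCl2. Phospho-Rb detected by Eu-cryptate anti-pRb(Ser780)/streptavidin-XL665 TR-FRET (665/620 nm ratio); IC50 from four-parameter logistic fit.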

The target of experiment [4] is T1, CDK2/Cyclin E1. Description: CDK2/Cyclin E1 Biochemical Assay (TR-FRET), 0.060 mM ATP. The conditions noted are these: 0.15 μM Rb (Ser780)-biotin substrate, pH7.0, 60 min preincubation, 120 min reaction, room temperature. Summed up: as §3

`CC1(NC(=O)O[C@H]2CC[C@@H](c3cc(Nc4cc5c(cc4F)S(=O)(=O)NC5)n[nH]3)C2)CCCC1` (relative stereo) [Example 446, cis-3-(3-((6-fluoro-1,1-dioxido-2,3-dihydrobenzo[d]isothiazol-5-yl)amino)-1H-pyrazol-5-yl)cyclopentyl(1-methylcyclopentyl)carbamate]: the half-maximal inhibitory concentration (IC50) – broadly, the concentration at which inhibition is half-maximal – was found to be 1.7 nM against CDK2/Cyclin E1 [1] and 1400 nM against CDK1/Cyclin B1 [2].

Take `CC[C@H](C)NC(=O)O[C@H]1CC[C@@H](c2cc(Nc3ccc4c(c3F)CCS(=O)(=O)N4)n[nH]2)C1` (relative stereo) [Example 461, cis-3-(3-((5-fluoro-2,2-dioxido-3,4-dihydro-1H-benzo[c][1,2]thiazin-6-yl)amino)-1H-pyrazol-5-yl)cyclopentyl((S)-sec-butyl)carbamate]: the values for the IC50 against CDK2/Cyclin E1 [1] and against CDK1/Cyclin B1 [2] were 0.3 nM and 271 nM, respectively.

For `O=C(NC1CC1)O[C@H]1CC[C@@H](c2cc(Nc3ccc4c(c3F)CS(=O)(=O)N4)n[nH]2)C1` (relative stereo) [Example 459, cis-3-(3-((4-fluoro-2,2-dioxido-1,3-dihydrobenzo[c]isothiazol-5-yl)amino)-1H-pyrazol-5-yl)cyclopentyl cyclopropylcarbamate], the values for the IC50 against CDK2/Cyclin E1 [1] and against CDK1/Cyclin B1 [2] were 6 nM and 1970 nM, respectively.

With `CC(C)(C)NC(=O)O[C@@H]1CC[C@H](c2cc(Nc3ccc4c(c3F)CCS(=O)(=O)N4)n[nH]2)C1` [Example 464, (1R,3S)-3-(3-((5-fluoro-2,2-dioxido-3,4-dihydro-1H-benzo[c][1,2]thiazin-6-yl)amino)-1H-pyrazol-5-yl)cyclopentyl tert-butylcarbamate], the half-maximal inhibitory concentration (IC50) stood at 0.8 nM on CDK2/Cyclin E1 [1] and 325 nM at CDK1/Cyclin B1 [2].

In the case of `CC1(C)CCN1C(=O)O[C@H]1CC[C@@H](c2cc(Nc3cc4c(cc3F)S(=O)(=O)NC4)n[nH]2)C1` (relative stereo) [Example 449, cis-3-(3-((6-fluoro-1,1-dioxido-2,3-dihydrobenzo[d]isothiazol-5-yl)amino)-1H-pyrazol-5-yl)cyclopentyl 2,2-dimethylazetidine-1-carboxylate], the IC50 worked out at 4.1 nM against CDK2/Cyclin E1 [1] and 1190 nM at CDK1/Cyclin B1 [2].

As for `CC(C)NC(=O)O[C@H]1CC[C@@H](c2cc(Nc3ccc4c(c3F)CS(=O)(=O)N4CC(C)(C)O)n[nH]2)C1` (single isomer, unassigned) [Example 254a, cis-3-(3-((4-fluoro-1-(2-hydroxy-2-methylpropyl)-2,2-dioxido-1,3-dihydrobenzo[c]isothiazol-5-yl)amino)-1H-pyrazol-5-yl)cyclopentyl isopropylcarbamate], the half-maximal inhibitory concentration (IC50) against CDK2/Cyclin E1 [1] came to 12 nM; against CDK1/Cyclin B1 [2], 3740 nM.

Regarding `CC(C)(O)CN1c2ccc(Nc3cc([C@@H]4CC[C@H](OC(=O)NC5(C)CC5)C4)[nH]n3)c(F)c2CS1(=O)=O` (relative stereo) [Example 435, cis-3-(3-((4-fluoro-1-(2-hydroxy-2-methylpropyl)-2,2-dioxido-1,3-dihydrobenzo[c]isothiazol-5-yl)amino)-1H-pyrazol-5-yl)cyclopentyl(1-methylcyclopropyl)carbamate], the results for the IC50 on CDK2/Cyclin E1 [1] and against CDK1/Cyclin B1 [2] were 1.3 nM and 423 nM, respectively.

In the case of `CC(C)(CO)NC(=O)O[C@H]1CC[C@@H](c2cc(Nc3ccc4c(c3F)CS(=O)(=O)N4)n[nH]2)C1` (relative stereo) [Example 443, cis-3-(3-((4-fluoro-2,2-dioxido-1,3-dihydrobenzo[c]isothiazol-5-yl)amino)-1H-pyrazol-5-yl)cyclopentyl(1-hydroxy-2-methylpropan-2-yl)carbamate], the concentration for half-maximal inhibition (IC50) came to 1.6 nM on CDK2/Cyclin E1 [1] and 582 nM against CDK1/Cyclin B1 [2].

With `CC(C)(CO)NC(=O)O[C@H]1CC[C@@H](c2cc(Nc3ccc4c(c3F)CS(=O)(=O)N4C3CC3)n[nH]2)C1` (single isomer, unassigned) [Example 363b, cis-3-(3-((1-cyclopropyl-4-fluoro-2,2-dioxido-1,3-dihydrobenzo[c]isothiazol-5-yl)amino)-1H-pyrazol-5-yl)cyclopentyl(1-hydroxy-2-methylpropan-2-yl)carbamate], the IC50 against CDK2/Cyclin E1 [1] is 1.5 nM; on CDK1/Cyclin B1 [2], 863 nM.

Turning to `CC(C)NC(=O)O[C@H]1CC[C@@H](c2cc(Nc3ccc4c(c3F)CCS(=O)(=O)N4)n[nH]2)C1` (single isomer, unassigned) [Example 430b], the IC50 against CDK2/Cyclin E1 [1] was 2.2 nM; against CDK1/Cyclin B1 [2], 784 nM.

With `CC1(C)CCCN1C(=O)O[C@H]1CC[C@@H](c2cc(Nc3ccc4c(c3F)CS(=O)(=O)N4)n[nH]2)C1` (relative stereo) [Example 436, cis-3-(3-((4-fluoro-2,2-dioxido-1,3-dihydrobenzo[c]isothiazol-5-yl)amino)-1H-pyrazol-5-yl)cyclopentyl 2,2-dimethylpyrrolidine-1-carboxylate], the values for the IC50 on CDK2/Cyclin E1 [1] and at CDK1/Cyclin B1 [2] were 1.5 nM and 122 nM, respectively.

In the case of `O=C(NC12CCC(O)(CC1)CC2)O[C@H]1CC[C@@H](c2cc(Nc3cc4c(cc3F)S(=O)(=O)NC4)n[nH]2)C1` (relative stereo) [Example 457, cis-3-(3-((6-fluoro-1,1-dioxido-2,3-dihydrobenzo[d]isothiazol-5-yl)amino)-1H-pyrazol-5-yl)cyclopentyl(4-hydroxybicyclo[2.2.2]octan-1-yl)carbamate], the IC50 at CDK2/Cyclin E1 [1] was determined as 1.8 nM; against CDK1/Cyclin B1 [2], 1110 nM.

With `CC(C)(CO)NC(=O)O[C@H]1CC[C@@H](c2cc(Nc3ccc4c(c3F)CS(=O)(=O)N4C3CC3)n[nH]2)C1` (single isomer, unassigned) [Example 363a, cis-3-(3-((1-cyclopropyl-4-fluoro-2,2-dioxido-1,3-dihydrobenzo[c]isothiazol-5-yl)amino)-1H-pyrazol-5-yl)cyclopentyl(1-hydroxy-2-methylpropan-2-yl)carbamate], the IC50 against CDK2/Cyclin E1 [1] turned out to be 2.2 nM; at CDK1/Cyclin B1 [2], 2420 nM.

Turning to `CC(C)NC(=O)O[C@H]1CC[C@@H](c2cc(Nc3ccc4c(c3C(F)(F)F)CNS4(=O)=O)n[nH]2)C1` (relative stereo) [Example 22, cis-3-(3-((1,1-dioxido-4-(trifluoromethyl)-2,3-dihydrobenzo[d]isothiazol-5-yl)amino)-1H-pyrazol-5-yl)cyclopentyl isopropylcarbamate], the half-inhibitory concentration (IC50) on CDK1/Cyclin B1 [3] was over 10000 nM; against CDK2/Cyclin E1 [4] it was 202 nM.

For the molecule `CC(C)NC(=O)O[C@H]1CC[C@@H](c2cc(Nc3ccc4c(c3)CS(=O)(=O)N4CCCO)n[nH]2)C1` (relative stereo) [Example 215, cis-3-(3-((1-(3-hydroxypropyl)-2,2-dioxido-1,3-dihydrobenzo[c]isothiazol-5-yl)amino)-1H-pyrazol-5-yl)cyclopentyl isopropylcarbamate], the IC50 amounted to 30 nM at CDK1/Cyclin B1 [3] and 3.1 nM on CDK2/Cyclin E1 [4].

Consider `O=C(NC1(CO)CCC1)O[C@H]1CC[C@@H](c2cc(Nc3ccc4c(c3F)CNS4(=O)=O)n[nH]2)C1` (relative stereo) [Example 385, cis-3-(3-((4-fluoro-1,1-dioxido-2,3-dihydrobenzo[d]isothiazol-5-yl)amino)-1H-pyrazol-5-yl)cyclopentyl(1-(hydroxymethyl)cyclobutyl)carbamate], for which the values for the IC50 at CDK1/Cyclin B1 [3] and on CDK2/Cyclin E1 [4] were 138 nM and 1.9 nM, respectively.

Turning to `CC(C)NC(=O)O[C@@H]1CC[C@H](c2cc(Nc3ccc4c(c3F)CS(=O)(=O)N4)n[nH]2)C1` (single isomer, unassigned) [Example 251a], the IC50 turned out to be 74 nM on CDK1/Cyclin B1 [3] and 1.1 nM against CDK2/Cyclin E1 [4].

Turning to `CC(C)NC(=O)O[C@H]1CC[C@@H](c2cc(Nc3cc(F)c4c(c3)CNS4(=O)=O)n[nH]2)C1` (relative stereo) [Example 29, cis-3-(3-((7-fluoro-1,1-dioxido-2,3-dihydrobenzo[d]isothiazol-5-yl)amino)-1H-pyrazol-5-yl)cyclopentyl isopropylcarbamate], the 50% inhibitory concentration (IC50) against CDK1/Cyclin B1 [3] came out at 113 nM; against CDK2/Cyclin E1 [4], 2.2 nM.

Take `CC[C@H](C)NC(=O)O[C@H]1CC[C@@H](c2cc(Nc3ccc4c(c3F)CN(C3COC3)S4(=O)=O)n[nH]2)C1` (single isomer, unassigned) [Example 134b]: the IC50 on CDK1/Cyclin B1 [3] turned out to be 120 nM; at CDK2/Cyclin E1 [4], 1.3 nM.

As for `CC[C@H](C)NC(=O)O[C@H]1CC[C@@H](c2cc(Nc3ccc4c(c3F)CS(=O)(=O)N4C3COC3)n[nH]2)C1` (single isomer, unassigned) [Example 261a], the IC50 on CDK1/Cyclin B1 [3] is 119 nM; on CDK2/Cyclin E1 [4] it was 1.3 nM.
